Source: US6841661B2, “Glycopeptide antibacterial compounds, compositions containing same and methods of using same” (Princeton Univerisity, priority 1999, dated 2005)
Values after ≈ are worked out from the molar mass of the structure shown. Read-outs that look alike come from different tables or passages of the source.

Experiments:
[1] = test system: CL 4931, CL 5053, CL 5242 and CL 4877; type: cell-based, E. faecium, E. faecalis; set-up: unit not given here
In short: (§1)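 Twofold broth microdilution per modified NCCLS M7-A4, 35 °C. Enterococci and VISA/MRSA in BHI (VISA/MRSA precultured in TSB + 10% HS), E. coli in MH II. Inocula ~1-5×10^6 CFU/ml for enterococci, ~3-7×10^5 CFU/ml otherwise. MIC is the lowest concentration with no visible growth, read at 18-20 hr (E. coli) or 22-24 hr.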

[2] = test system: E. faecium CL 5242 (VanA); test: microbe, parasite or virus in culture; type: cell-based; set-up: CL5242 (in vitro testing): unit not given here; details: for CL5242 (in vitro testing): Tables 7 and 8, unit not given; for MIC, CL5242: E. faecium CL 5242 (VanA)
In short: (§2)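 NCCLS M7-A4-based broth microdilution with twofold serial dilutions, incubated at 35° C; medium BHI for enterococci and VISA/MRSA, cation-adjusted Mueller-Hinton for E. coli. Inoculum about 1-5×10^6 CFU/ml (enterococci) or 3-7×10^5 CFU/ml (others); MIC is lowest concentration with no visible growth, read at 18-20 hr for E. coli, 22-24 hr otherwise.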

[3] = test system: E. faecium CL 5053 (VanA); test: microbe, parasite or virus in culture; type: cell-based; set-up: CL5053 (in vitro testing): unit not given here; details: for CL5053 (in vitro testing): Tables 7 and 8, unit not given; for MIC, CL5053: E. faecium CL 5053 (VanA)
In short: as §2

[4] = test system: E. faecium CL 4931 (VanA); test: microbe, parasite or virus in culture; type: cell-based; set-up: CL4931 (in vitro testing): unit not given here; details: for CL4931 (in vitro testing): Tables 7 and 8, unit not given; for MIC, CL4931: E. faecium CL 4931 (VanA)
In short: as §2

[5] = test system: E. faecalis CL 4877 (VanB); test: microbe, parasite or virus in culture; type: cell-based; set-up: CL4877 (in vitro testing): unit not given here; details: for CL4877 (in vitro testing): Tables 7 and 8, unit not given; for MIC, CL4877: E. faecalis CL 4877 (VanB)
In short: as §1

[6] = mean of CL4931, CL5053, CL5242, CL4877, unit not given
[7] = Table 9, mean MIC over CL4931, CL5053, CL5242, CL4877

Compound	Mean [1, 6]	CL5242 (in vitro testing) [2]	CL5053 (in vitro testing) [3]	CL4931 (in vitro testing) [4]	CL4877 (in vitro testing) [5]	Mean [1, 7]	MIC, CL5242 ([2]; Table 9)	MIC, CL5053 ([3]; Table 9)	MIC, CL4931 ([4]; Table 9)	MIC, CL4877 ([5]; Table 9)	Mean ([1]; Table 10, mean MIC over CL4931, CL5053, CL5242, CL4877)	MIC, CL5242 ([2]; Table 10)	MIC, CL5053 ([3]; Table 10)	MIC, CL4931 ([4]; Table 10)	MIC, CL4877 ([5]; Table 10)
CNC(CC(C)C)C(=O)NC1C(=O)NC(CC(N)=O)C(=O)NC2C(=O)NC3C(=O)NC(C(=O)NC(C(=O)O)c4cc(O)cc(O)c4-c4cc3ccc4O)C(O)c3ccc(c(Cl)c3)Oc3cc2cc(c3OC2OC(CN)C(O)C(O)C2OC2CC(C)(NCc3ccc(OCc4c(Cl)cccc4Cl)cc3)C(O)C(C)O2)Oc2ccc(cc2Cl)C1O (stereo not shown) [Compound 176]	13	4	16	16	>16	–	–	–	–	–	–	–	–	–	–
CNC(CC(C)C)C(=O)NC1C(=O)NC(CC(N)=O)C(=O)NC2C(=O)NC3C(=O)NC(C(=O)NC(C(=O)O)c4cc(O)cc(O)c4-c4cc3ccc4O)C(O)c3ccc(c(Cl)c3)Oc3cc2cc(c3OC2OC(CN)C(O)C(O)C2OC2CC(C)(NCc3ccc(OCc4ccc(C(=O)OC)cc4)cc3)C(O)C(C)O2)Oc2ccc(cc2Cl)C1O (stereo not shown) [Compound 177]	13	4	>16	>16	>16	–	–	–	–	–	–	–	–	–	–
CNC(CC(C)C)C(=O)NC1C(=O)NC(CC(N)=O)C(=O)NC2C(=O)NC3C(=O)NC(C(=O)NC(C(=O)O)c4cc(O)cc(O)c4-c4cc3ccc4O)C(O)c3ccc(c(Cl)c3)Oc3cc2cc(c3OC2OC(CN)C(O)C(O)C2OC2CC(C)(NCc3ccc(OCc4ccc([N+](=O)[O-])cc4)cc3)C(O)C(C)O2)Oc2ccc(cc2Cl)C1O (stereo not shown) [Compound 178]	27	8	>32	32	>32	–	–	–	–	–	–	–	–	–	–
CNC(CC(C)C)C(=O)NC1C(=O)NC(CC(N)=O)C(=O)NC2C(=O)NC3C(=O)NC(C(=O)NC(C(=O)O)c4cc(O)cc(O)c4-c4cc3ccc4O)C(O)c3ccc(c(Cl)c3)Oc3cc2cc(c3OC2OC(CN)C(O)C(O)C2OC2CC(C)(NCc3ccc(OCc4ccc(C(F)(F)F)cc4)cc3)C(O)C(C)O2)Oc2ccc(cc2Cl)C1O (stereo not shown) [Compound 179]	3.25	1	8	8	4	–	–	–	–	–	–	–	–	–	–
CNC(CC(C)C)C(=O)NC1C(=O)NC(CC(N)=O)C(=O)NC2C(=O)NC3C(=O)NC(C(=O)NC(C(=O)O)c4cc(O)cc(O)c4-c4cc3ccc4O)C(O)c3ccc(c(Cl)c3)Oc3cc2cc(c3OC2OC(CN)C(O)C(O)C2OC2CC(C)(NCc3ccc(OCc4ccccc4C(F)(F)F)cc3)C(O)C(C)O2)Oc2ccc(cc2Cl)C1O (stereo not shown) [Compound 180]	12.5	2	16	16	16	–	–	–	–	–	–	–	–	–	–
CNC(CC(C)C)C(=O)NC1C(=O)NC(CC(N)=O)C(=O)NC2C(=O)NC3C(=O)NC(C(=O)NC(C(=O)O)c4cc(O)cc(O)c4-c4cc3ccc4O)C(O)c3ccc(c(Cl)c3)Oc3cc2cc(c3OC2OC(CN)C(O)C(O)C2OC2CC(C)(NCc3ccc(OCc4ccc(F)cc4Cl)cc3)C(O)C(C)O2)Oc2ccc(cc2Cl)C1O (stereo not shown) [Compound 181]	21	4	32	16	32	–	–	–	–	–	–	–	–	–	–
CNC(CC(C)C)C(=O)NC1C(=O)NC(CC(N)=O)C(=O)NC2C(=O)NC3C(=O)NC(C(=O)NC(C(=O)O)c4cc(O)cc(O)c4-c4cc3ccc4O)C(O)c3ccc(c(Cl)c3)Oc3cc2cc(c3OC2OC(CN)C(O)C(O)C2OC2CC(C)(NCc3ccc(OCc4ccccc4Cl)cc3)C(O)C(C)O2)Oc2ccc(cc2Cl)C1O (stereo not shown) [Compound 182]	13	4	>16	>16	>16	–	–	–	–	–	–	–	–	–	–
CNC(CC(C)C)C(=O)NC1C(=O)NC(CC(N)=O)C(=O)NC2C(=O)NC3C(=O)NC(C(=O)NC(C(=O)O)c4cc(O)cc(O)c4-c4cc3ccc4O)C(O)c3ccc(c(Cl)c3)Oc3cc2cc(c3OC2OC(CN)C(O)C(O)C2OC2CC(C)(NCc3ccc(OCc4ccc(Cl)c(Cl)c4)cc3Cl)C(O)C(C)O2)Oc2ccc(cc2Cl)C1O (stereo not shown) [Compound 183]	4	2	4	8	2	–	–	–	–	–	–	–	–	–	–
CNC(CC(C)C)C(=O)NC1C(=O)NC(CC(N)=O)C(=O)NC2C(=O)NC3C(=O)NC(C(=O)NC(C(=O)O)c4cc(O)cc(O)c4-c4cc3ccc4O)C(O)c3ccc(c(Cl)c3)Oc3cc2cc(c3OC2OC(CN)C(O)C(O)C2OC2CC(C)(NCc3ccc(OCc4ccc(Cl)c(Cl)c4)c(OC)c3)C(O)C(C)O2)Oc2ccc(cc2Cl)C1O (stereo not shown) [Compound 184]	4.5	2	4	4	8	–	–	–	–	–	–	–	–	–	–
CNC(CC(C)C)C(=O)NC1C(=O)NC(CC(N)=O)C(=O)NC2C(=O)NC3C(=O)NC(C(=O)NC(C(=O)O)c4cc(O)cc(O)c4-c4cc3ccc4O)C(O)c3ccc(c(Cl)c3)Oc3cc2cc(c3OC2OC(CN)C(O)C(O)C2OC2CC(C)(NCc3ccc(OCc4ccc(Cl)c(Cl)c4)cc3OC)C(O)C(C)O2)Oc2ccc(cc2Cl)C1O (stereo not shown) [Compound 185]	8	4	16	8	4	–	–	–	–	–	–	–	–	–	–
CNC(CC(C)C)C(=O)NC1C(=O)NC(CC(N)=O)C(=O)NC2C(=O)NC3C(=O)NC(C(=O)NC(C(=O)O)c4cc(O)cc(O)c4-c4cc3ccc4O)C(O)c3ccc(c(Cl)c3)Oc3cc2cc(c3OC2OC(CN)C(O)C(O)C2OC2CC(C)(NCc3ccc(Oc4ccc(Cl)c(Cl)c4)cc3)C(O)C(C)O2)Oc2ccc(cc2Cl)C1O (stereo not shown) [Compound 186]	6.5	2	8	8	8	–	–	–	–	–	–	–	–	–	–
CNC(CC(C)C)C(=O)NC1C(=O)NC(CC(N)=O)C(=O)NC2C(=O)NC3C(=O)NC(C(=O)NC(C(=O)O)c4cc(O)cc(O)c4-c4cc3ccc4O)C(O)c3ccc(c(Cl)c3)Oc3cc2cc(c3OC2OC(CN)C(O)C(O)C2OC2CC(C)(NCc3ccc(C(=O)Oc4ccc(Cl)cc4)cc3)C(O)C(C)O2)Oc2ccc(cc2Cl)C1O (stereo not shown) [Compound 187]	17	4	16	16	32	–	–	–	–	–	–	–	–	–	–
CNC(CC(C)C)C(=O)NC1C(=O)NC(CC(N)=O)C(=O)NC2C(=O)NC3C(=O)NC(C(=O)NC(C(=O)O)c4cc(O)cc(O)c4-c4cc3ccc4O)C(O)c3ccc(c(Cl)c3)Oc3cc2cc(c3OC2OC(CN)C(O)C(O)C2OC2CC(C)(NCc3ccc(C(=O)Oc4ccc(Cl)c(Cl)c4)cc3)C(O)C(C)O2)Oc2ccc(cc2Cl)C1O (stereo not shown) [Compound 188]	11	4	16	8	16	–	–	–	–	–	–	–	–	–	–
CNC(CC(C)C)C(=O)NC1C(=O)NC(CC(N)=O)C(=O)NC2C(=O)NC3C(=O)NC(C(=O)NC(C(=O)O)c4cc(O)cc(O)c4-c4cc3ccc4O)C(O)c3ccc(c(Cl)c3)Oc3cc2cc(c3OC2OC(CN)C(O)C(O)C2OC2CC(C)(NCC(=O)Oc3ccc(-c4ccc(Cl)c(Cl)c4)cc3)C(O)C(C)O2)Oc2ccc(cc2Cl)C1O (stereo not shown) [Compound 189]	32	32	>32	32	32	–	–	–	–	–	–	–	–	–	–
CNC(CC(C)C)C(=O)NC1C(=O)NC(CC(N)=O)C(=O)NC2C(=O)NC3C(=O)NC(C(=O)NC(C(=O)O)c4cc(O)cc(O)c4-c4cc3ccc4O)C(O)c3ccc(c(Cl)c3)Oc3cc2cc(c3OC2OC(CNCc3ccccc3)C(O)C(O)C2OC2CC(C)(NCc3ccc(-c4ccc(Cl)cc4)cc3)C(O)C(C)O2)Oc2ccc(cc2Cl)C1O (stereo not shown) [Compound 190]	–	–	–	–	–	5.5	2 mg/L (≈ 1.15 µM)	8 mg/L (≈ 4.6 µM)	8 mg/L (≈ 4.6 µM)	4 mg/L (≈ 2.3 µM)	–	–	–	–	–
C=Cc1ccccn1 [Compound 191, 2-pyridylethylene]	–	–	–	–	–	13.0	4 mg/L (≈ 38 µM)	16 mg/L (≈ 152 µM)	16 mg/L (≈ 152 µM)	16 mg/L (≈ 152 µM)	–	–	–	–	–
CNC(CC(C)C)C(=O)NC1C(=O)NC(CC(N)=O)C(=O)NC2C(=O)NC3C(=O)NC(C(=O)NC(C(=O)O)c4cc(O)cc(O)c4-c4cc3ccc4O)C(O)c3ccc(c(Cl)c3)Oc3cc2cc(c3OC2OC(CNCC3CCCO3)C(O)C(O)C2OC2CC(C)(NCc3ccc(-c4ccc(Cl)cc4)cc3)C(O)C(C)O2)Oc2ccc(cc2Cl)C1O (stereo not shown) [Compound 192]	–	–	–	–	–	13.0	4 mg/L (≈ 2.31 µM)	16 mg/L (≈ 9.23 µM)	16 mg/L (≈ 9.23 µM)	16 mg/L (≈ 9.23 µM)	–	–	–	–	–
teicoplanin [reference compound]	170.8	256	>1024	256	0.5	128.1	256 mg/L	> 1020 mg/L	256 mg/L	0.5 mg/L	256.0	256 mg/L	> 1020 mg/L	256 mg/L	16 mg/L
